Broadly, the IC50 is the concentration at which inhibition is half-maximal.

2 compounds from patent US10759803B2, “Asparagine endopeptidase (AEP) inhibitors for managing cancer and compositions related thereto” (priority 2014, dated 2020) can be followed below.

Data set [1] addresses T1, AEP (Homo sapiens, UniProt Q99538).
T1 construct: tested with purified active AEP, IC50 values for the top 8 candidates were found
T1 sequence (Q99538 18-323 limits assumed): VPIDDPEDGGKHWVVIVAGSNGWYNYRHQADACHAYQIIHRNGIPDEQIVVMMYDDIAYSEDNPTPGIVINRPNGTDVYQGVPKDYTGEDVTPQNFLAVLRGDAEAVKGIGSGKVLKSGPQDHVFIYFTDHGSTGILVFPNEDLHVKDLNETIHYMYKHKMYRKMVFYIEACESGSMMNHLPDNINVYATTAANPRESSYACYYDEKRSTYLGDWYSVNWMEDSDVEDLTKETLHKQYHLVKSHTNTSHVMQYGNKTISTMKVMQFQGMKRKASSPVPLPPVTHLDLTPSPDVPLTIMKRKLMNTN
Description: Time course inactivation assays. Type of data set: biochemical. On the procedure: (§1) KI values for each inhibitor were determined by global fits to the competitive inhibition equation. C. Time course inactivation assays were used to generate progress curves, depicting product formation as a function of time. […] E. Time course inactivation assays were used to generate progress curves, depicting product formation as a function of time. Pseudo first-order rate constants were obtained at each concentration of compound BB1. F. Re-plot of the pseudo first-order rate constants, kobs, vs. the concentration of compound BB1.
(§2) A. Michaelis-Menten plots displaying competitive inhibition of AEP. The inhibition constant, K1, was determined from the globally fit data. B. Double reciprocal Lineweaver-Burk plots also displaying competitive inhibition. C. […] DC. A plot of the corrected kobs values obtained from each curve in (B) versus the concentration of compound 38, which enabled the calculation of the second-order rate constant, kinact/KI to be determined to measure the potency of the inhibitor.
Progress curves were generated by incubating 5 μM Z-AAN-AMC and the specified concentration of inhibitor in assay buffer at 37° C. for 10 min. The reaction was initiated by the addition of 50 nM AEP and quenched after 10 min. The concentration of the product was determined from an AMC standard curve and the data was fit by nonlinear regression. Since the curves were nonlinear, they were fit to equation 5, using the GraFit version 5.0.11 software package, [Product]=vi(1−e^−kobs.app*t)/kobs.app (eq 5), where vi is the initial velocity, kobs.app is the apparent pseudo-first order rate constant for inactivation, and t is time. Equation 6, kobs=[…] (eq 6), was used to correct the apparent pseudo-first-order inactivation rate constants, obtained from this analysis, for substrate concentration and the pseudo-first-order inactivation rate constants, i.e. kobs, thus obtained, were plotted against the tested inhibitor concentrations. […]

The target of data set [2] is T1, AEP. Nature of the data set: IC50 assay with purified recombinant AEP. Type of data set: biochemical. The note with it: purified active AEP; read-out: IC50 toward AEP. On the procedure:
Purified recombinant enzyme was incubated with various concentrations of inhibitor in appropriate assay buffers in the presence of increasing concentrations of inhibitor. The formation of fluorescent product was monitored in duplicate reactions and the data was fit to appropriate equations to calculate the IC50 values.
To identify small-molecule inhibitors of AEP, a high-throughput screen was designed in conjunction with the Emory Chemical Biology Discovery Center. The screen incorporated mouse kidney lysates to assay a 54,384 compound library. […] Additional structural analysis and grouping allowed the compounds to be sorted into 8 distinct backbone families. […] The specificity of the compounds was also determined using four major cysteine proteases (FIG. 2).
Various concentrations of the appropriate compound were incubated with AEP reaction buffer (50 mM Sodium Citrate pH 5.5, 0.1% CHAPS, 60 mM Na2HPO4, 1 mM EDTA, final pH 6.0) and peptide substrate, 10 μM Cbz-Ala-Ala-Asn-AMC (Bachem). The reaction was initiated upon addition of 50 nM AEP and fluorescent product formation was monitored over 15 min. […] Data were analyzed with GraFit version 5.0.11 software package.

Data set [3] has as its target T1, AEP. Nature of the data set: DTT / L-cysteine reversibility of AEP inhibition. The note with it: 10 mM DTT or L-cysteine added after 15 min. The data set is classed as biochemical. The protocol: AEP was reacted with specified inhibitor, after 15 min 10 mM DTT or L-cysteine was added to the reaction and the fluorescent signal was read for an additional 15 min. At the end of the second 15 min incubation, the percentage of product formed in the presence of each compound was determined in comparison to the DMSO control reaction.
Although it is not intended that embodiments of this disclosure be limited by any particular mechanism, to gain additional insight into the mechanism utilized by the inhibitors for abrogation of AEP activity, their reversibility in the presence of free thiols was determined. The addition of a strong reducing agent, such as DTT, or a weaker reducing agent, L-cysteine, to an inhibited reaction can be used to out-compete the inhibitory agent and restore catalytic activity to an enzyme with an active-site thiol residue. Here, a similar approach was used by adding a reducing agent, either DTT or L-cysteine, to a reaction, in which AEP had been incubated with a specified inhibitor, in an attempt to reverse the effects of the inhibitor. […] For compounds BB1 and 38, this increase in enzymatic activity may be due to the reduction of a disulfide linkage between the inhibitor and the enzyme, since these compounds contain thiols. Compound 10 contains a thiocyanate and may undergoes nucleophilic attack by the enzyme's active-site thiolate to form a thioimidate enzyme-inhibitor complex. Under acidic conditions, this complex is reducible by either a strong reducing agent, such as DTT, or the weaker L-cysteine.

A further data set concerns the target Cathepsin-L (Homo sapiens, UniProt P07711). Nature of the data set: Specificity assay against Cathepsin-L. The data set is classed as biochemical.
Data set [4] concerns the target T2, endogenous AEP in human B lymphoblastoid pala cells (Homo sapiens, UniProt Q99538).
T2 construct: human B lymphoblastoid pala cells, which are rich in endogenous AEP; endogenous in cells; host or cells: human B lymphoblastoid Pala cells
T2 sequence (Q99538 18-323): T1 sequence (Q99538 18-323 limits assumed)
Nature of the data set: AEP inhibition in intact Pala cells. The conditions noted are these: 2 hrs incubation, residual enzymatic activity in lysate. The data set is classed as cell-based. The protocol:
The cells were incubated with inhibitors for 2 hrs then cells washed, harvested and lysed and the residual enzymatic activity was determined. Lysate was normalized by Bradford assay and the experiment was performed in triplicate and the mean results and SEM were plotted.
In an attempt to assess the activity of the compounds in intact cells, the compounds were incubated with human B lymphoblastoid pala cells, which are rich in endogenous AEP and have been used for inhibiting AEP in cellular assay.

For data set [5], the target named is T1, AEP. Nature of the data set: Inhibition kinetics assays (steady-state, Z-AAN-AMC). The conditions noted are these: competitive inhibition. The data set is classed as biochemical. The protocol: as §1, §2
To determine the inhibition constants and the mechanism by which compound 38 inhibits AEP, the steady-state kinetic parameters for the hydrolysis of the peptide substrate, Z-AAN-AMC, were determined in the absence or presence of increasing concentrations of inhibitor. In these assays, specified concentrations of the inhibitor were pre-incubated with substrate for 10 min at 37° C., then 50 nM AEP was added to initiate the reaction, which was quenched after 10 min. […]
In the equations, Kii is the intercept Ki, and Kis is the slope Ki. The mode of the inhibition induced by the compounds on AEP was determined by the best fit of the data to equations 1-4. […]

Data set [6] concerns amyloid precursor protein (APP) cleavage. Nature of the data set: APP cleavage in OGD-treated primary cortical neurons. The data set is classed as cell-based. On the procedure:
(§3) A. AEP activity, measured in primary neuronal cultures with 5 μM Cbz-Ala-Ala-Asn-AMC (x-axis denotes neurons were treated with 0.1 μM or 1.0 μM specified compound). B. Caspase activity, measured in primary neuronal cultures with 5 μM Ac-Asp-Glu-Val-Asp-AMC. C. Cathepsin activity, measured in primary neuronal cultures with 5 μM D-Val-Leu-Lys-AMC. D. Inhibition of APP cleavage. Lysates of primary cortical neurons pre-incubated with compounds for 30 min, underwent OGD for 4 hrs, were reperfused for 18 hrs (normoxia neurons remained at normoxic conditions). E. APP can be cleaved in a dose-dependent manner. Lysates of primary cortical neurons pre-incubated with compounds for 30 min, underwent OGD for 4 hrs, were reperfused for 18 hrs (normoxia neurons remained at normoxic conditions).
Depriving cells of oxygen and glucose is a cellular model that is employed to trigger acidosis in cultured cells. The efficacy of the compounds in a cellular model of oxygen-glucose deprivation (OGD) was determined in an effort to mimic the effects of stroke in primary cultured neurons. As a result of depriving neurons of oxygen and glucose-containing medium, AEP activity was doubled (FIG. 7A, ‘DMSO-Norm’ compared to ‘DMSO-OGD’), while Caspase-3 and Cathepsin activities remained relatively unchanged. […] Cleavage of APP is observed in response to only DMSO treatment (FIG. 7D, lane 2), and it appears that upon the treatment of 1 μM of compounds 10, 11, and 12, and just 0.1 μM of compound s31, 38 and 64, the cleavage was blocked, presumably due to AEP inhibition.

A short description of data set [7]: BBB-PAMPA permeability assay. Type of data set: in vitro ADME.
Data set [8] deals with AEP. Description: AEP activity in OGD-treated primary neurons. Type of data set: cell-based. The conditions noted are these: 0.1 μM or 1.0 μM compound, 5 μM Cbz-Ala-Ala-Asn-AMC. On the procedure:
as §3
Depriving cells of oxygen and glucose is a cellular model that is employed to trigger acidosis in cultured cells. The efficacy of the compounds in a cellular model of oxygen-glucose deprivation (OGD) was determined in an effort to mimic the effects of stroke in primary cultured neurons. As a result of depriving neurons of oxygen and glucose-containing medium, AEP activity was doubled (FIG. 7A, ‘DMSO-Norm’ compared to ‘DMSO-OGD’), while Caspase-3 and Cathepsin activities remained relatively unchanged. […]

For another data set, the target named is CYP2D6 (Homo sapiens, UniProt P10635). Description: CYP inhibition screening, CYP2D6. Type of data set: in vitro ADME.
The subject of the next data set is CYP3A. Nature of the data set: CYP inhibition screening, CYP3A-Testosterone. The data set is classed as in vitro ADME.
The target of the next data set is CYP2C19 (Homo sapiens, UniProt P33261). Nature of the data set: CYP inhibition screening, CYP2C19. Type of data set: in vitro ADME.
A short description of data set [9]: Mouse liver microsomal stability screen. The note with it: Mouse liver microsomes. In general terms: Liver microsomes are vesicles of endoplasmic reticulum, rich in cytochrome P450 enzymes.
The next data set has as its target CYP3A4 (Homo sapiens, UniProt P08684). Description: CYP inhibition screening, CYP3A4-Midazolam. The data set is classed as in vitro ADME.
In another data set the target is CYP2C9 (Homo sapiens, UniProt P11712). Description: CYP inhibition screening, CYP2C9. The data set is classed as in vitro ADME.
Data set [10] in a line: Human liver microsomal stability screen. The note with it: Human liver microsomes.
The target of another data set is T3, CYP1A2 (Homo sapiens, UniProt P05177).
T3 sequence (P05177 1-516): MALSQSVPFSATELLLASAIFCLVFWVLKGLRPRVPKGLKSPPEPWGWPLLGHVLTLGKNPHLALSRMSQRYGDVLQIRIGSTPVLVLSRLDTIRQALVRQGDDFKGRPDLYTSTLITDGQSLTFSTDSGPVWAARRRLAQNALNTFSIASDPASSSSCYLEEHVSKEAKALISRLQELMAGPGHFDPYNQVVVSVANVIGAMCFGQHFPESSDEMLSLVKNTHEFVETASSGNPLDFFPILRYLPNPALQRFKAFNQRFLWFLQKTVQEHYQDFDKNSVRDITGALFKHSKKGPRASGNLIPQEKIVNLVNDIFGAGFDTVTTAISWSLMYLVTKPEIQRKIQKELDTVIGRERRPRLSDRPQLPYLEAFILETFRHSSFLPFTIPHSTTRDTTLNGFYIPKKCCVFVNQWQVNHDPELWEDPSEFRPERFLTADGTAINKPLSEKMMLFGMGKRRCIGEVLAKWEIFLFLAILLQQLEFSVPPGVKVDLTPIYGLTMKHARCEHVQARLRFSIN
Description: CYP inhibition screening, CYP1A2. The data set is classed as in vitro ADME.

Another data set relates to Caco-2 monolayer. Nature of the data set: Caco-2 monolayer permeability screen. The note with it: Table 1.

CYP2C19, sequence (P33261 whole entry): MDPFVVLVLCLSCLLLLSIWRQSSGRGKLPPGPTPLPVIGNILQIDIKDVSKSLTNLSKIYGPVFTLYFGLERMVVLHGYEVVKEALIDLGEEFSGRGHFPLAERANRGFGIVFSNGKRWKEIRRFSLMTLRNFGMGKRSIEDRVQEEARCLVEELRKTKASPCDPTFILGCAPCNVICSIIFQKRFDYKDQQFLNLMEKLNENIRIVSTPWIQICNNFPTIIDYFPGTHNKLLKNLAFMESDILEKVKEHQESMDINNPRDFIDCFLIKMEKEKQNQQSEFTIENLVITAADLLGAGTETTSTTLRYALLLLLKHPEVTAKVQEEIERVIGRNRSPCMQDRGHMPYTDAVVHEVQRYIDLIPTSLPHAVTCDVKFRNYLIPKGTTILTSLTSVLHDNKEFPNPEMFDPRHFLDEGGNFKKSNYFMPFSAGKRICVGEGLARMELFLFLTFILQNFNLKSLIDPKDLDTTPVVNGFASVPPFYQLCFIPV
CYP3A4, sequence (P08684 whole entry): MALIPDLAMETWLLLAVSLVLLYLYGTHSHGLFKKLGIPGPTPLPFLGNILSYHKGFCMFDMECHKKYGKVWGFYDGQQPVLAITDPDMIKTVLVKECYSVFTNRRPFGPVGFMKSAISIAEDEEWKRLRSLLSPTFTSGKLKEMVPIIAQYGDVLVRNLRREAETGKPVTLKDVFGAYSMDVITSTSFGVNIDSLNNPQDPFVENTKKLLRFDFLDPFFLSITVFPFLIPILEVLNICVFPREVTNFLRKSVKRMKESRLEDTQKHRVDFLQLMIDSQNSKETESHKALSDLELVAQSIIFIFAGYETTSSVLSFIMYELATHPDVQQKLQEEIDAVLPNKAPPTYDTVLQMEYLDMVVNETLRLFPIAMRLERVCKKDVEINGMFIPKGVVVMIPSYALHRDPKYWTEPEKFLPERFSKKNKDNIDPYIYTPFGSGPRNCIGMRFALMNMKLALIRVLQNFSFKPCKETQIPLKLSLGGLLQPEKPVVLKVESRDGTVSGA
CYP2D6, sequence (P10635 whole entry): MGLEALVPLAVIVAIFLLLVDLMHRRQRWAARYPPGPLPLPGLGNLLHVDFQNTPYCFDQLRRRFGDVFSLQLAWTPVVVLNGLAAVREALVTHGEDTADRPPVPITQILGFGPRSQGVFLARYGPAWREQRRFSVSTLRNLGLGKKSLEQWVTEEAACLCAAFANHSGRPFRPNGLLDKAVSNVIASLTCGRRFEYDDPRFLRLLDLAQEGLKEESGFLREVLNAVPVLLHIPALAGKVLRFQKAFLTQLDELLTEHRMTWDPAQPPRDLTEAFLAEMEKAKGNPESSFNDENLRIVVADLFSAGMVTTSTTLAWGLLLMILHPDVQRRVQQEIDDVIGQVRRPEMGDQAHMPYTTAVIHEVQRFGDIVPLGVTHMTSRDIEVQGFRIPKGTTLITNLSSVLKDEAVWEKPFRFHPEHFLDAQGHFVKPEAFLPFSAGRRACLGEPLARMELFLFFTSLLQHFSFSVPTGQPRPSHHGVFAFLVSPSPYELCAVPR
CYP2C9, sequence (P11712 whole entry): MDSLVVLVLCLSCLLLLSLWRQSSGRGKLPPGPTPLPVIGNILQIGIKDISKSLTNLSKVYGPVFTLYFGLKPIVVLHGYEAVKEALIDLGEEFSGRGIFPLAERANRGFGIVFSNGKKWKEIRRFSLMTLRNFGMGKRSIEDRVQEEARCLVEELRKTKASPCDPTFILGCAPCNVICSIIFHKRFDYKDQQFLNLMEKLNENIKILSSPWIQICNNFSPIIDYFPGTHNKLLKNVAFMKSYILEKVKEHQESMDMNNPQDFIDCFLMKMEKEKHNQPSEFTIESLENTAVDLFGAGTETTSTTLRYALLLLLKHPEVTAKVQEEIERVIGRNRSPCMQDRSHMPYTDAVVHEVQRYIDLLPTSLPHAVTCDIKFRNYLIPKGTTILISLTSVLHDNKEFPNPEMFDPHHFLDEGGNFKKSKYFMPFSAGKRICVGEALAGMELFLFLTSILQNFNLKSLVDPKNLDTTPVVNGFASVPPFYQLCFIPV
Cathepsin-L, sequence (P07711 114-333, species assumed): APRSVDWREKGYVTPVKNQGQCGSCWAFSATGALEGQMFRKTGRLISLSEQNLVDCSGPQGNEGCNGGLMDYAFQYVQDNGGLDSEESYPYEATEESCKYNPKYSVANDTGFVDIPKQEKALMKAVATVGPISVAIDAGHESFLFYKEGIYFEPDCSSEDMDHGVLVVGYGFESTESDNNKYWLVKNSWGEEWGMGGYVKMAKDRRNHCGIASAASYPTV
Description for Caco-2 monolayer: To explore the in vitro ADME profiles of the compounds, additional tests were conducted.

Consider `Sc1nnc(Nc2ccccc2)s1` [Compound BB1], for which the “second-order rate constant, kinact/KI” value on AEP [1] came out at 55000 M⁻¹ s⁻¹. Also, the IC50 at AEP [2] is approximately 130 nM. Besides, at AEP [3], the “AEP activity after addition of reducing agent (reversibility)” value is given as “regained a substantial amount of activity”. At Cathepsin-L, the “selectivity for AEP over Cathepsin-L” value is recorded as “about 38 fold”. The “IC50 in intact Pala cells” value in data set [4] is given as “slightly larger IC50 values”. Further, at AEP [5], the “inhibition constants in words” value is “nanomolar-range”.
Turning to `Cc1cccc(NCc2ccc(O)c3ncccc23)c1C` [Compound 12], the “APP cleavage after OGD” value in data set [6] (1 μM compound) is “blocked”. In [6] (FIG. 7E), the “APP cleavage after OGD, dose dependence” value is reported as “dose-dependent decrease”. The Pe entry in [7] is on record as “<LLOQ”. Besides, the “AEP activity in OGD neurons” value in the data set on AEP [8] is on record as “slight decrease”. Further, the CYP2D6 inhibition at CYP2D6 (3 μM) is on record as 2.9%; on CYP2D6 (10 μM), −2.6%. Besides, the values for the CYP3A-Testosterone inhibition in the data set on CYP3A (3 μM) and with CYP3A (10 μM) were 14.2% and 27.6%, respectively. Besides, the CYP2C19 inhibition worked out at 13.4% at CYP2C19 (3 μM) and 29.4% at CYP2C19 (10 μM). Besides, the “Mean Remaining Parent (NADPH-free)” value in data set [9] was found to be 0%; in data set [10], 1%. Moreover, the “Mean Remaining Parent (with NADPH)” value in data set [9] and in data set [10] (30 min) was 1% each time. Besides, the CYP3A4-Midazolam inhibition at CYP3A4 (3 μM) and on CYP3A4 (10 μM) was −2.5% in each case. The values for the CYP2C9 inhibition on CYP2C9 (3 μM) and at CYP2C9 (10 μM) were 4.3% and −2.7%, respectively. Besides, the CYP1A2 inhibition is on record as 28.4% on CYP1A2 (3 μM) and 44.5% at CYP1A2 (10 μM). Besides, the “A −>B Papp” value in the data set with Caco-2 monolayer is reported as 1.4 10^−6 cm · s^−1. Moreover, the “B −> A Papp” value in the data set with Caco-2 monolayer is given as 3.7 10^−6 cm · s^−1. The compound also displayed an RE in the data set with Caco-2 monolayer of 2.7.
